In PubChem BioAssay (NCI):
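Briefly, cells in 96-well plates were exposed to five compound concentrations for 48 h, and endpoints were estimated by linear interpolation. GI50 marks 50% less growth. TGI: concentration producing complete growth inhibition.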

What was measured:
Assay in all cases: inhibition of tumour cell growth, NCI panel, 48 h
[1] = test system: OVCAR-5 ovarian
[2] = test system: OVCAR-4 ovarian
[3] = test system: 786-0 renal
[4] = test system: SK-MEL-5 melanoma
[5] = test system: HOP-92 NSCLC
[6] = test system: CAKI-1 renal
[7] = test system: U251 CNS
[8] = test system: UO-31 renal
[9] = test system: SK-OV-3 ovarian
[10] = test system: UACC-62 melanoma
[11] = test system: OVCAR-3 ovarian
[12] = test system: SK-MEL-2 melanoma
[13] = test system: HS 578T breast
[14] = test system: MDA-MB-231 breast
[15] = test system: TK-10 renal
[16] = test system: UACC-257 melanoma
[17] = test system: DU-145 prostate
[18] = test system: NCI-H226 lung
[19] = test system: IGROV1 ovarian
[20] = test system: HT29 colon
[21] = test system: SF-295 CNS
[22] = test system: LOX IMVI melanoma
[23] = test system: MCF7 breast
[24] = test system: HL-60(TB) leukemia
[25] = test system: T-47D breast
[26] = test system: HCC-2998 colon
[27] = test system: NCI/ADR-RES ovarian
[28] = test system: ACHN renal
[29] = test system: HCT-116 colon
[30] = test system: BT-549 breast
[31] = test system: OVCAR-8 ovarian
[32] = test system: CCRF-CEM leukemia
[33] = test system: SNB-75 CNS
[34] = test system: MDA-MB-435
[35] = test system: KM12 colon
[36] = test system: SN12C renal
[37] = test system: PC-3 prostate
[38] = test system: HCT-15 colon
[39] = test system: SW-620 colon
[40] = test system: RPMI-8226 leukemia
[41] = test system: A549 NSCLC
[42] = test system: NCI-H522 lung
[43] = test system: M14 melanoma
[44] = test system: SK-MEL-28 melanoma
[45] = test system: COLO 205 colon
[46] = test system: A498 renal
[47] = test system: MOLT-4 leukemia
[48] = test system: K-562 leukemia
[49] = test system: MALME-3M melanoma
[50] = test system: SF-539 CNS
[51] = test system: RXF 393 renal
[52] = test system: NCI-H460 lung
[53] = test system: NCI-H23 lung
[54] = test system: HOP-62 NSCLC
[55] = test system: SR leukemia
[56] = test system: SF-268 CNS
[57] = test system: SNB-19 CNS

Cc1ccc2c(c1)c(C1=C(c3cn(C)c4ccccc34)C(=O)NC1=O)cn2C
GI50 [1]: 10.8 µM | TGI [1]: > 25 µM | GI50 [2]: 3.79 µM | TGI [2]: > 21.8 µM | GI50 [3]: 5.21 µM | TGI [3]: > 22.8 µM | GI50 [4]: 1.48 µM | TGI [4]: 5.07 µM | GI50 [5]: 5.96 µM | TGI [5]: > 22.1 µM | GI50 [6]: 3.63 µM | TGI [6]: > 25 µM | GI50 [7]: 1.52 µM | TGI [7]: > 25 µM | GI50 [8]: 2.77 µM | TGI [8]: 13.8 µM | GI50 [9]: 2.72 µM | TGI [9]: > 25 µM | GI50 [10]: 1.35 µM | TGI [10]: 9.79 µM | GI50 [11]: 0.904 µM | TGI [11]: 3.44 µM | GI50 [12]: 1.42 µM | TGI [12]: 6.81 µM | GI50 [13]: 0.595 µM | TGI [13]: 3.55 µM | GI50 [14]: 6.93 µM | TGI [14]: > 25 µM | GI50 [15]: 8.67 µM | TGI [15]: > 25 µM | GI50 [16]: 3.39 µM | TGI [16]: > 24.2 µM | GI50 [17]: 6.73 µM | TGI [17]: 22.2 µM | GI50 [18]: 3.57 µM | TGI [18]: 13 µM | GI50 [19]: 5.23 µM | TGI [19]: > 14.9 µM | GI50 [20]: 1.01 µM | TGI [20]: 6.77 µM | GI50 [21]: 1.4 µM | TGI [21]: > 15.7 µM | GI50 [22]: 2.93 µM | TGI [22]: > 23.4 µM | GI50 [23]: 1.08 µM | TGI [23]: > 16.3 µM | GI50 [24]: 1.33 µM | TGI [24]: 11.3 µM | GI50 [25]: 4 µM | TGI [25]: 20 µM | GI50 [26]: 9.25 µM | TGI [26]: > 25 µM | GI50 [27]: 3.23 µM | TGI [27]: > 25 µM | GI50 [28]: 3.09 µM | TGI [28]: > 23.4 µM | GI50 [29]: 1.36 µM | TGI [29]: 10.2 µM | GI50 [30]: 3.65 µM | TGI [30]: 11.1 µM | GI50 [31]: 5.3 µM | TGI [31]: > 25 µM | GI50 [32]: 1.32 µM | TGI [32]: 13.3 µM | GI50 [33]: 0.723 µM | TGI [33]: > 17.8 µM | GI50 [34]: 0.674 µM | TGI [34]: > 11.2 µM | GI50 [35]: 1.92 µM | TGI [35]: 9.09 µM | GI50 [36]: 3.12 µM | TGI [36]: 16.8 µM | GI50 [37]: 1.75 µM | TGI [37]: > 25 µM | GI50 [38]: 1.39 µM | TGI [38]: > 25 µM | GI50 [39]: 1.16 µM | TGI [39]: > 25 µM | GI50 [40]: 2.19 µM | TGI [40]: 9.18 µM | GI50 [41]: 1.97 µM | TGI [41]: > 25 µM | GI50 [42]: 0.927 µM | TGI [42]: 12.2 µM | GI50 [43]: 2.07 µM | TGI [43]: > 25 µM | GI50 [44]: 4 µM | TGI [44]: > 22.5 µM | GI50 [45]: 1.49 µM | TGI [45]: 7.18 µM | GI50 [46]: 1.34 µM | TGI [46]: 6.14 µM | GI50 [47]: 2.56 µM | TGI [47]: 13.9 µM | GI50 [48]: 1.53 µM | TGI [48]: > 25 µM | GI50 [49]: 4.4 µM | TGI [49]: > 21.4 µM | GI50 [50]: 1.11 µM | TGI [50]: 5.58 µM | GI50 [51]: 1.54 µM | TGI [51]: 4.79 µM | GI50 [52]: 1.26 µM | TGI [52]: 9.01 µM | GI50 [53]: 4.9 µM | TGI [53]: > 25 µM | GI50 [54]: 3.17 µM | TGI [54]: > 25 µM | GI50 [55]: 0.966 µM | TGI [55]: 9.81 µM | GI50 [56]: 3.09 µM | TGI [56]: > 25 µM | GI50 [57]: 8.15 µM | TGI [57]: > 25 µM
